Assays:
[1] = type: in vitro ADME, mouse
Method: Stability was determined for both the In-111 and Lu-177 labelled compounds by mixing 20 µl of radiolabelled sample (approx. 5 MBq) with 80 µl phosphate buffered saline (PBS) (0.01 M, pH 7.4), or mixing 70 µl of radiolabelled sample (approx. 20 MBq) with 330 µl of mouse serum, and heating at 37°C for up to 24 h. After incubation, 50 µl of the mouse serum solution is added to a separate vial containing acetonitrile (50 µl) and the sample is centrifuged for 20 min. The supernatant and precipitate are separated, and the activity is measured to determine the binding to serum proteins. The supernatant is then analysed by radio-HPLC. The PBS solution is loaded directly onto the radio-HPLC.

[2] = in vivo; cited from earlier work
From the text: In this study, we synthesized PSMA-targeted radiopharmaceuticals that combined an albumin binder and a cleavable linker to optimize their therapeutic efficacy. We selected the albumin-binder containing PSMA-617 derivative HTK01169 (figure 1), reported by Kuo et al., as a reference. [^177Lu]Lu-HTK01169 delivers an eightfold higher dose to the tumour than [^177Lu]Lu-PSMA-617, but also a 17-fold higher dose to the kidneys. The amino acid sequences Gly-Tyr-Lys (GYK) and Met-Val-Lys (MVK) were selected as the cleavable linkers. Effective cleavage of the MVK sequence in ^67/68Ga-labell ... || The purpose of this study is to report the synthesis and radiolabelling of new PSMA derivatives containing: (i) a PSMA-targeting vector, (ii) an albumin binder, namely 4-(p-iodophenyl)butyric acid, (iii) an amino acid sequence which could be specifically recognized and cleaved by renal brush border (RBB) enzymes, and (iv) a DOTA chelator which can be labelled with In-111 for imaging or Lu-177 for therapy. Previous studies reported that presence of an albumin-binding moiety increases blood residence time of the radiopharmaceutical agent, and ultimately leads to a higher accumulation of the PSMA ...

[3] = tested on: renal brush border enzymes; settings: labelled with gallium-68; cited from earlier work
From the text: We hypothesized that this radiolabelled impurity might come from the radiation-induced oxidation of the methionine residue of the cleavable linker. Bendre et al. recently synthesized DOTA-AmBz-M(O)VK(HTK01166)-OH, the oxidized analogue of the PSMA-targeted derivative DOTA-AmBz-MVK(HTK01166)-OH, and performed labelling with gallium-68. They observed that the oxidized product was not cleaved by the renal brush border enzymes. It confirms that oxidation of the methionine is undesirable, as it leads to loss of enzyme recognition and consequently less cleavage of the conjugate. This radiolys ...

[4] = tested on: renal brush border (RBB) enzymes; settings: Cy5 labelled model peptide; cited from earlier work
From the text: High kidney uptake of radiopharmaceuticals can usually be explained by the long residence time of radiometabolites generated after lysosomal proteolysis. This process is followed by glomerular filtration and reabsorption of the radiometabolites in renal cells. By inserting a linker which is specifically cleaved by enzymes on the brush border membrane located in the lumen of the proximal renal tubule, the radiometal-chelator moiety can be rapidly excreted via the bladder while the peptide remains in the kidneys. The MVK sequence was initially conjugated to antibody fragments by Uehara et ...

[5] = in vivo; cited from earlier work; remark: listed apart in the source
From the text: The purpose of this study is to report the synthesis and radiolabelling of new PSMA derivatives containing: (i) a PSMA-targeting vector, (ii) an albumin binder, namely 4-(p-iodophenyl)butyric acid, (iii) an amino acid sequence which could be specifically recognized and cleaved by renal brush border (RBB) enzymes, and (iv) a DOTA chelator which can be labelled with In-111 for imaging or Lu-177 for therapy. Previous studies reported that presence of an albumin-binding moiety increases blood residence time of the radiopharmaceutical agent, and ultimately leads to a higher accumulation of the PSMA ...

[6] = tested on: metastatic castration-resistant prostate cancer; settings: cited from earlier work
From the text: The prostate-specific membrane antigen (PSMA) is overexpressed in prostate cancer cells, and its expression increases with disease progression. PSMA is therefore an attractive target for TRT of prostate cancer. Currently, several compounds targeting this protein are being investigated for imaging and treatment of prostate cancer, with PSMA-617 advancing as a lead candidate (figure 1).

[7] = plus standard of care, versus standard of care, ref NCT03511664

Question: For `N[C@@H](CCCCNC(=O)CN1CCN(CC(=O)O)CCN(CC(=O)O)CCN(CC(=O)O)CC1)C(=O)N[C@@H](Cc1ccc(O)cc1)C(=O)NCC(=O)NCCCC[C@H](NC(=O)[C@H](CCC(=O)O)NC(=O)CCCc1ccc(I)cc1)C(=O)NC[C@H]1CC[C@H](C(=O)N[C@@H](Cc2ccc3ccccc3c2)C(=O)NCCCC[C@H](NC(=O)N[C@@H](CCC(=O)O)C(=O)O)C(=O)O)CC1` [[^111In]-7] [metal not drawn], which “peak at 2.9 min (radiolabelled side-product) in mouse serum” value [1] is on record?
Answer: Its value is 62%.

Question: Which “radiation dose to the kidneys relative to [177Lu]Lu-PSMA-617” value [2] does the source give for `O=C(O)CC[C@H](NC(=O)N[C@@H](CCCCNC(=O)[C@H](Cc1ccc2ccccc2c1)NC(=O)[C@H]1CC[C@H](CNC(=O)[C@H](CCCCNC(=O)CN2CCN(CC(=O)O)CCN(CC(=O)O)CCN(CC(=O)O)CC2)NC(=O)[C@H](CCC(=O)O)NC(=O)CCCc2ccc(I)cc2)CC1)C(=O)O)C(=O)O` [[^177Lu]Lu-HTK01169, metal not drawn] here?
Answer: The value was 17 fold.

Question: What about the “radiation dose to the tumour relative to [177Lu]Lu-PSMA-617” value [2] of the same molecule?
Answer: The value was “eightfold”.

Question: For DOTA-AmBz-M(O)VK(HTK01166)-OH, which “cleavage by renal brush border enzymes” value [3] is on record?
Answer: Its value is “not cleaved”.

Question: Which “cleavage on incubation with RBB enzymes” value [4] does the source give for “H-GGGFK(Cy5)-NH2 [Cy5 labelled model peptide with GFK linker]” here?
Answer: Its value is 82%.

Question: For “H-GGGYK(Cy5)-NH2 [Cy5 labelled model peptide with GYK linker]”, which “cleavage on incubation with RBB enzymes” value [4] is on record?
Answer: Its value is “quantitative cleavage”.

Question: With [^177Lu]Lu-PSMA-617 as the molecule, how does the “uptake in the kidneys at 1 h” value [5] read?
Answer: The value was “approximately 10 % IA g^−1”.

Question: What about the “uptake in the kidneys at 24 h” value [5] of the same molecule?
Answer: Its value is “less than 1 % IA g^−1”.

Question: And the “patients who do not respond significantly to the treatment” value [6]?
Answer: The value was “approximately 30%”.

Question: And the “incidence of adverse effects (grade 3 or 4)” value ([6]; human, in vivo)?
Answer: Its value is 52.7%.

Question: And the response rates ([6]; patients)?
Answer: Its response rates is “over 50%”.

Question: What about the “imaging-based progression free survival (median)” value [6, 7] of the same molecule?
Answer: Its value is 8.7 months.

Question: What about the “overall survival (median)” value [6, 7] of the same molecule?
Answer: The value was 15.3 months.

Source: PMC9993039, “Synthesis and radiolabelling of PSMA-targeted derivatives containing GYK/MVK cleavable linkers” (Royal Society Open Science, 2023)
